Source: US8859596B2, “Compounds as cannabinoid receptor ligands” (priority 2008, dated 2014)
Like-named read-outs stand apart in the source and are kept apart here.

Key:
human CB2 receptors = human CB2 receptors (Homo sapiens (Human), UniProt P34972); assay: human CB2 radioligand binding assay ([3H]CP 55,940 competition)
Experimental: (§1) The CB1 and CB2 radioligand binding assays described herein are utilized to ascertain the affinity of compounds of the present application for binding to CB2 relative to CB1 receptors.
HEK293 cells stably expressing human CB2 receptors were grown until a confluent monolayer was formed. Briefly, the cells were harvested and homogenized in TE buffer (50 mM Tris-HCl, 1 mM MgCl2, and 1 mM EDTA) using a polytron for 2×10 second bursts in the presence of protease inhibitors, followed by centrifugation at 45,000×g for 20 minutes. The final membrane pellet was re-homogenized in storage buffer (50 mM Tris-HCl, 1 mM MgCl2, and 1 mM EDTA and 10% sucrose) and frozen at −78° C. until used. Saturation binding reactions were initiated by the addition of membrane preparation (protein concentration of 5 μg/well for human CB2) into wells of a deep well plate containing [^3H]CP 55,940 (120 Ci/mmol, a nonselective CB agonist commercially available from Tocris) in assay buffer (50 mM Tris, 2.5 mM EDTA, 5 mM MgCl2, and 0.5 mg/mL fatty acid free BSA, pH 7.4). After 90 min incubation at 30° C., binding reaction was terminated by the addition of 300 μL/well of cold assay buffer followed by rapid vacuum filtration through a UniFilter-96 GF/C filter plates (pre-soaked in 1 mg/mL BSA for 2 hours). The bound activity was counted in a TopCount using Microscint-20. Saturation experiments were conducted with twelve concentrations of [^3H]CP 55,940 ranging from 0.01 to 8 nM. Competition experiments were conducted with 0.5 nM [^3H]CP 55,940 and five concentrations (0.01 nM to 10 μM) of displacing ligands. The addition of 10 μM unlabeled CP 55,940 (Tocris, Ellisville, Mo.) was used to assess nonspecific binding.

rat CB2 = rat CB2 (Rattus norvegicus (Rat), UniProt Q9QZN9); assay: rat CB2 radioligand binding assay ([3H]CP 55,940 competition)
Experimental: as §1
HEK293 cells stably expressing rat CB2 receptors were grown until a confluent monolayer was formed. Briefly, the cells were harvested and homogenized in TE buffer (50 mM Tris-HCl, 1 mM MgCl2, and 1 mM EDTA) using a polytron for 2×10 second bursts in the presence of protease inhibitors, followed by centrifugation at 45,000×g for 20 minutes. The final membrane pellet was re-homogenized in storage buffer (50 mM Tris-HCl, 1 mM MgCl2, and 1 mM EDTA and 10% sucrose) and frozen at −78° C. until used. Saturation binding reactions were initiated by the addition of membrane preparation (protein concentration of 20 μg/well for rat CB2) into wells of a deep well plate containing [^3H]CP 55,940 (120 Ci/mmol, a nonselective CB agonist commercially available from Tocris) in assay buffer (50 mM Tris, 2.5 mM EDTA, 5 mM MgCl2, and 0.5 mg/mL fatty acid free BSA, pH 7.4). After 45 min incubation at 30° C., binding reaction was terminated by the addition of 300 μl/well of cold assay buffer followed by rapid vacuum filtration through a UniFilter-96 GF/C filter plates (pre-soaked in 1 mg/mL BSA for 2 hours). The bound activity was counted in a TopCount using Microscint-20. Saturation experiments were conducted with twelve concentrations of [^3H]CP 55,940 ranging from 0.01 to 8 nM. Competition experiments were conducted with 0.5 nM [^3H]CP 55,940 and five concentrations of displacing ligands selected from the range of 0.01 nM to […] addition of 10 μM unlabeled CP 55,940 (Tocris, Ellisville, Mo.) was used to assess nonspecific binding.

[1] = HEK293 membranes, 0.5 nM [3H]CP 55,940, read-out: human CB2 (Ki)
[2] = HEK293 membranes, 0.5 nM [3H]CP 55,940, read-out: rat CB2 (Ki)

rat CB2, sequence (Q9QZN9 whole entry): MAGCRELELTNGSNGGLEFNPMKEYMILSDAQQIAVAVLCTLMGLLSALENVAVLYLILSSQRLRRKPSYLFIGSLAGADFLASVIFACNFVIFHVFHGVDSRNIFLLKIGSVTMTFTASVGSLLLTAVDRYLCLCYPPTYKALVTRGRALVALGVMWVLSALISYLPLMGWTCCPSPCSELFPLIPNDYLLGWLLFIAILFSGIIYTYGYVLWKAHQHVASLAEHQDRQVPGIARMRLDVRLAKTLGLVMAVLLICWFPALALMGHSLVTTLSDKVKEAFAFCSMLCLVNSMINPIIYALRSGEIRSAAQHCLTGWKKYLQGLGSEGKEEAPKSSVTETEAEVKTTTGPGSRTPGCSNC
human CB2 receptors, sequence (P34972 whole entry): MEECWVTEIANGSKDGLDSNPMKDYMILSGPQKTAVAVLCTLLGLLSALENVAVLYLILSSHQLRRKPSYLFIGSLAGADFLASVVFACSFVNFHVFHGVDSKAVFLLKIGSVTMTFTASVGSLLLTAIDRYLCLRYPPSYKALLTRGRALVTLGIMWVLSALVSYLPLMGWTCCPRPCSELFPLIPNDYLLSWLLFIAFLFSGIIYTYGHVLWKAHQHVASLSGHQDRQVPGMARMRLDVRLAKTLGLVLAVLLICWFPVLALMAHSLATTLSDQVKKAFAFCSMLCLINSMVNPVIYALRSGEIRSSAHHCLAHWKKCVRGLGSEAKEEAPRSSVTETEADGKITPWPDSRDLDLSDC

Which results are given for `CCCCn1nc(C(C)(C)C)s/c1=N\C(=O)c1cc(C(F)(F)F)ccc1N/N=C\c1cccc(C)n1` [Example 35, N-[(2Z)-3-butyl-5-tert-butyl-1,3,4-thiadiazol-2(3H)-ylidene]-2-{(2Z)-2-[(6-methylpyridin-2-yl)methylene]hydrazino}-5-(trifluoromethyl)benzamide]?
Ki (human CB2 receptors): 185 nM; Ki (rat CB2): 20 nM

What does the source list for `CCCCn1nc(C(C)(C)C)s/c1=N\C(=O)c1cc(C(F)(F)F)ccc1O/N=C(\C)C(C)(C)C` [Example 150, N-[(2Z)-3-butyl-5-tert-butyl-1,3,4-thiadiazol-2(3H)-ylidene]-5-(trifluoromethyl)-2-({[(1E)-1,2,2-trimethylpropylidene]amino}oxy)benzamide]?
Ki (human CB2 receptors; [1]): 216 nM; Ki (rat CB2; [2]): 283 nM

With `CCCCn1nc(C(C)(C)C)s/c1=N\C(=O)c1cc(C(F)(F)F)ccc1ON=C(N)c1ccncc1` [Example 203, 2-({[amino(pyridin-4-yl)methylene]amino}oxy)-N-[(2Z)-3-butyl-5-tert-butyl-1,3,4-thiadiazol-2(3H)-ylidene]-5-(trifluoromethyl)benzamide] as the molecule, how does the Ki (human CB2 receptors; [1]) read?
The Ki was 68 nM.

And the Ki (rat CB2; [2])?
The Ki was 33 nM.

`CC(C)(C)NOc1ccc(C(F)(F)F)cc1C(=O)/N=c1\sc(C(C)(C)C)nn1CC1CC1` [Example 163, 2-[(tert-butylamino)oxy]-N-[(2Z)-5-tert-butyl-3-(cyclopropylmethyl)-1,3,4-thiadiazol-2(3H)-ylidene]-5-(trifluoromethyl)benzamide] was tested. Which Ki (human CB2 receptors; [1]) did it give?
The Ki was 16 nM.

What about the Ki (rat CB2; [2]) of the same molecule?
Its Ki is 3 nM.

Which results are given for `CC(C)(C)NOc1ccc(C(F)(F)F)cc1C(=O)/N=c1\sc(C(C)(C)C)nn1CCCCF` [Example 174, 2-[(tert-butylamino)oxy]-N-[(2Z)-5-tert-butyl-3-(4-fluorobutyl)-1,3,4-thiadiazol-2(3H)-ylidene]-5-(trifluoromethyl)benzamide]?
Ki (human CB2 receptors; [1]): 6.2 nM; Ki (rat CB2; [2]): 1.1 nM

Which Ki (human CB2 receptors; [1]) does the source give for `CCCCn1nc(C(C)(C)C)s/c1=N\C(=O)c1cc(C(F)(F)F)ccc1NNC(N)=O` [Example 201, 2-[2-({[(2Z)-3-butyl-5-tert-butyl-1,3,4-thiadiazol-2(3H)-ylidene]amino}carbonyl)-4-(trifluoromethyl)phenyl]hydrazinecarboxamide] here?
The Ki was 47 nM.

What about the Ki (rat CB2; [2]) of the same molecule?
Its Ki is 5.2 nM.

With `CCCCn1/c(=N/C(=O)c2cc(C(F)(F)F)ccc2NNC(=O)c2cccnc2)cc(C(C)(C)C)n1C` [Example 199, N-[(3E)-2-butyl-5-tert-butyl-1-methyl-1,2-dihydro-3H-pyrazol-3-ylidene]-2-[2-(pyridin-3-ylcarbonyl)hydrazino]-5-(trifluoromethyl)benzamide] as the molecule, how does the Ki (human CB2 receptors; [1]) read?
The Ki was 2.5 nM.

And the Ki (rat CB2; [2])?
The Ki was 2.2 nM.

Which results are given for `CC(C)Cn1nc(C(C)(C)C)s/c1=N\C(=O)c1cc(C(F)(F)F)ccc1ONC(C)(C)C` [Example 152, 2-[(tert-butylamino)oxy]-N-[(2Z)-5-tert-butyl-3-isobutyl-1,3,4-thiadiazol-2(3H)-ylidene]-5-(trifluoromethyl)benzamide]?
Ki (human CB2 receptors; [1]): 29 nM; Ki (rat CB2; [2]): 31 nM

Which Ki (human CB2 receptors; [1]) does the source give for `CCCCn1cc(C(C)(C)C)cc/c1=N\C(=O)c1cc(C(F)(F)F)ccc1ONC(C)(C)C` [Example 160, 2-[(tert-butylamino)oxy]-N-[(2E)-1-butyl-5-tert-butylpyridin-2(1H)-ylidene]-5-(trifluoromethyl)benzamide] here?
The Ki was 88 nM.

And the Ki (rat CB2; [2])?
The Ki was 5.9 nM.

`Cn1c(C(C)(C)C)c/c(=N\C(=O)c2cc(C(F)(F)F)ccc2ONC(C)(C)C)n1CCC(F)(F)F` [Example 156, 2-[(tert-butylamino)oxy]-N-[(3E)-5-tert-butyl-1-methyl-2-(3,3,3-trifluoropropyl)-1,2-dihydro-3H-pyrazol-3-ylidene]-5-(trifluoromethyl)benzamide] was tested. Which Ki (human CB2 receptors) did it give?
Its Ki is 68 nM.

What about the Ki (rat CB2) of the same molecule?
Its Ki is 10 nM.

Which results are given for `CCCCn1/c(=N/C(=O)c2cc(C(F)(F)F)ccc2ONC(C)C)cc(C(C)(C)C)n1C` [Example 159, N-[(3E)-2-butyl-5-tert-butyl-1-methyl-1,2-dihydro-3H-pyrazol-3-ylidene]-2-[(isopropylamino)oxy]-5-(trifluoromethyl)benzamide]?
Ki (human CB2 receptors; [1]): 16 nM; Ki (rat CB2; [2]): 5.2 nM

With `CCCCn1nc(C(C)(C)C)s/c1=N\C(=O)c1cc(C(F)(F)F)ccc1ON=C(N)C(C)C` [Example 175, 2-({[1-amino-2-methylpropylidene]amino}oxy)-N-[(2Z)-3-butyl-5-tert-butyl-1,3,4-thiadiazol-2(3H)-ylidene]-5-(trifluoromethyl)benzamide] as the molecule, how does the Ki (human CB2 receptors; [1]) read?
Its Ki is 5.3 nM.

And the Ki (rat CB2; [2])?
The Ki was 2.9 nM.

Which results are given for `CCCCn1nc(C(C)(C)C)s/c1=N\C(=O)c1cc(C(F)(F)F)ccc1ON=C(N)c1ccccn1` [Example 196, 2-({[amino(pyridin-2-yl)methylene]amino}oxy)-N-[(2Z)-3-butyl-5-tert-butyl-1,3,4-thiadiazol-2(3H)-ylidene]-5-(trifluoromethyl)benzamide]?
Ki (human CB2 receptors; [1]): 18 nM; Ki (rat CB2; [2]): 4.1 nM

How did the Ki (human CB2 receptors; [1]) turn out when `CCCCn1/c(=N/C(=O)c2cc(C(F)(F)F)ccc2O/N=C(\C)C(F)(F)F)cc(C(C)(C)C)n1C` [Example 194, N-[(3E)-2-butyl-5-tert-butyl-1-methyl-1,2-dihydro-3H-pyrazol-3-ylidene]-5-(trifluoromethyl)-2-({[(1E)-2,2,2-trifluoro-1-methylethylidene]amino}oxy)benzamide] was run?
Its Ki is 12 nM.

And the Ki (rat CB2; [2])?
Its Ki is 40 nM.

Which Ki (human CB2 receptors; [1]) does the source give for `CCCCn1nc(C(C)(C)C)s/c1=N\C(=O)c1cc(C(F)(F)F)ccc1NN=C(C)C` [Example 187, N-[(2Z)-3-butyl-5-tert-butyl-1,3,4-thiadiazol-2(3H)-ylidene]-2-[2-(1-methylethylidene)hydrazino]-5-(trifluoromethyl)benzamide] here?
Its Ki is 247 nM.

And the Ki (rat CB2; [2])?
Its Ki is 120 nM.

Which results are given for `CCCCn1nc(C(C)(C)C)s/c1=N\C(=O)c1cc(C(F)(F)F)ccc1ONC(=O)C(C)(C)C` [Example 169, N-[(2Z)-3-butyl-5-tert-butyl-1,3,4-thiadiazol-2(3H)-ylidene]-2-{[(2,2-dimethylpropanoyl)amino]oxy}-5-(trifluoromethyl)benzamide]?
Ki (human CB2 receptors; [1]): 0.6 nM; Ki (rat CB2; [2]): 0.6 nM

What does the source list for `CCCCn1nc(C(C)(C)C)s/c1=N\C(=O)c1cc(C(F)(F)F)ccc1ON(C)C` [Example 171, N-[(2Z)-3-butyl-5-tert-butyl-1,3,4-thiadiazol-2(3H)-ylidene]-2-[(dimethylamino)oxy]-5-(trifluoromethyl)benzamide]?
Ki (human CB2 receptors): 21 nM; Ki (rat CB2): 4.9 nM

Which results are given for `CC(C)(C)NOc1ccc(C(F)(F)F)cc1C(=O)/N=c1\sc(C(C)(C)C)nn1CC1CCO1` (stereo not drawn) [Example 177, 2-[(tert-butylamino)oxy]-N-[(2Z)-5-tert-butyl-3-(oxetan-2-ylmethyl)-1,3,4-thiadiazol-2(3H)-ylidene]-5-(trifluoromethyl)benzamide]?
Ki (human CB2 receptors; [1]): 15 nM; Ki (rat CB2; [2]): 7.3 nM

What does the source list for `Cn1c(C(C)(C)C)c/c(=N\C(=O)c2cc(Cl)ccc2ONC(C)(C)C)n1C[C@H]1CCCO1` [Example 168, 2-[(tert-butylamino)oxy]-N-{(3E)-5-tert-butyl-1-methyl-2-[(2R)-tetrahydrofuran-2-ylmethyl]-1,2-dihydro-3H-pyrazol-3-ylidene}-5-chlorobenzamide]?
Ki (human CB2 receptors; [1]): 52 nM; Ki (rat CB2; [2]): 21 nM

How did the Ki (human CB2 receptors; [1]) turn out when `CCCCn1nc(C(C)(C)C)s/c1=N\C(=O)c1cc(C(F)(F)F)ccc1ON=C(N)c1cccnc1` [Example 204, 2-({[amino(pyridin-3-yl)methylene]amino}oxy)-N-[(2Z)-3-butyl-5-tert-butyl-1,3,4-thiadiazol-2(3H)-ylidene]-5-(trifluoromethyl)benzamide] was run?
Its Ki is 87 nM.

What about the Ki (rat CB2; [2]) of the same molecule?
The Ki was 13 nM.

`CCCCn1nc(C(C)(C)C)s/c1=N\C(=O)c1cc(C(F)(F)F)ccc1NNC(=O)c1ccncc1` [Example 191, N-[(2Z)-3-butyl-5-tert-butyl-1,3,4-thiadiazol-2(3H)-ylidene]-2-(2-isonicotinoylhydrazino)-5-(trifluoromethyl)benzamide] was tested. Which Ki (human CB2 receptors; [1]) did it give?
Its Ki is 0.8 nM.

And the Ki (rat CB2; [2])?
The Ki was 0.9 nM.
